In brackets after ≈: the same amount, converted by molar mass.
Assays:
[1] = test system: Escherichia coli; assay: Antibacterial activity against Escherichia coli NCIM 2688 after 8 hrs; format: functional, organism-based; details: NCIM 2688, 8 h
[2] = test system: Pseudomonas fluorescens; assay: Antibacterial activity against Pseudomonas fluorescens NCIM 2036 after 8 hrs; format: functional, organism-based; details: NCIM 2036, 8 h
[3] = test system: Staphylococcus aureus; assay: Antibacterial activity against Staphylococcus aureus NCIM 2010 after 12 hrs; format: functional, organism-based; details: NCIM 2010, 12 h
[4] = test system: Bacillus subtilis; assay: Antibacterial activity against Bacillus subtilis NCIM 2079 after 12 hrs; format: functional, organism-based; details: NCIM 2079, 12 h
[5] = test system: Mycobacterium tuberculosis; assay: Antitubercular activity against active state Mycobacterium tuberculosis H37Ra assessed as viable cells after 8 days by XTT reduction menadione assay; format: functional, organism-based; details: 192 h
[6] = test system: Mycobacterium tuberculosis; assay: Antitubercular activity against dormant state Mycobacterium tuberculosis H37Ra assessed as viable cells after 12 days by XTT reduction menadione assay; format: functional, organism-based; details: 288 h
[7] = (§1) Cytotoxicity against human HeLa cells after 72 hrs by MTT assay; format: cell-based; details: HeLa cells
[8] = test system: HeLa; assay: as §1; format: cell-based; details: hela, 72 h
[9] = (§2) Cytotoxicity against human A549 cells after 48 hrs by MTT assay; format: cell-based; details: A549 cells
[10] = test system: A549; assay: as §2; format: cell-based; details: a549, 48 h
[11] = Cytotoxicity against human PANC1 cells after 48 hrs by MTT assay; format: cell-based, PANC-1; details: for GI50 at 48 h: PANC1 cells; for GI90: panc-1, 48 h

Compound	IC50 [1]	MIC [1]	IC50 [2]	MIC [2]	IC50 [3]	MIC [3]	IC50 [4]	MIC [4]	IC50 [5]	MIC [5]	IC50 [6]	MIC [6]	GI50 at 72 h [7]	GI90 [8]	GI50 at 48 h [9]	GI90 [10]	GI50 at 48 h [11]	GI90 [11]
O=C(/C=C\c1cccc(O)c1)N1N=C(c2ccncc2)OC1c1c[nH]c2ccccc12 (configuration not stated)	16.6 µg/mL (≈ 40.6 µM)	49.2 µg/mL (≈ 120 µM)	17.4 µg/mL (≈ 42.5 µM)	82.8 µg/mL (≈ 202 µM)	18.2 µg/mL (≈ 44.5 µM)	84.4 µg/mL (≈ 206 µM)	19.8 µg/mL (≈ 48.4 µM)	121 µg/mL (≈ 295 µM)	> 30 µg/mL	> 30 µg/mL	> 30 µg/mL	> 30 µg/mL	> 30 µg/mL	> 30 µg/mL	> 30 µg/mL	> 30 µg/mL	> 30 µg/mL	> 30 µg/mL
O=C(/C=C\c1ccc(O)cc1)N1N=C(c2ccncc2)OC1c1c[nH]c2ccccc12 (configuration not stated)	> 256 µg/mL	> 256 µg/mL	45 µg/mL (≈ 110 µM)	> 256 µg/mL	> 256 µg/mL	> 256 µg/mL	> 256 µg/mL	> 256 µg/mL	> 30 µg/mL	> 30 µg/mL	> 30 µg/mL	> 30 µg/mL	> 30 µg/mL	> 30 µg/mL	> 30 µg/mL	> 30 µg/mL	> 30 µg/mL	> 30 µg/mL
COc1ccc(/C=C\C(=O)N2N=C(c3ccncc3)OC2c2c[nH]c3ccccc23)cc1 (configuration not stated)	14 µg/mL (≈ 33 µM)	182 µg/mL (≈ 429 µM)	15.7 µg/mL (≈ 37 µM)	101 µg/mL (≈ 239 µM)	7.72 µg/mL (≈ 18.2 µM)	88.1 µg/mL (≈ 208 µM)	15.7 µg/mL (≈ 37 µM)	156 µg/mL (≈ 369 µM)	> 30 µg/mL	> 30 µg/mL	> 30 µg/mL	> 30 µg/mL	> 30 µg/mL	> 30 µg/mL	> 30 µg/mL	> 30 µg/mL	> 30 µg/mL	> 30 µg/mL
O=C(/C=C\c1ccccc1Cl)N1N=C(c2ccncc2)OC1c1c[nH]c2ccccc12 (configuration not stated)	1.73 µg/mL (≈ 4.03 µM)	27.6 µg/mL (≈ 64.3 µM)	2.53 µg/mL (≈ 5.9 µM)	25.2 µg/mL (≈ 58.7 µM)	3.33 µg/mL (≈ 7.76 µM)	29.2 µg/mL (≈ 68 µM)	4.13 µg/mL (≈ 9.63 µM)	22 µg/mL (≈ 51.3 µM)	11.6 µg/mL (≈ 27.1 µM)	> 30 µg/mL	> 30 µg/mL	> 30 µg/mL	> 30 µg/mL	> 30 µg/mL	> 30 µg/mL	> 30 µg/mL	> 30 µg/mL	> 30 µg/mL
O=C(/C=C\c1ccc(F)cc1)N1N=C(c2ccncc2)OC1c1c[nH]c2ccccc12 (configuration not stated)	13.6 µg/mL (≈ 33 µM)	> 256 µg/mL	7.33 µg/mL (≈ 17.8 µM)	> 256 µg/mL	12.9 µg/mL (≈ 31.3 µM)	> 256 µg/mL	15.6 µg/mL (≈ 37.8 µM)	> 256 µg/mL	> 30 µg/mL	> 30 µg/mL	> 30 µg/mL	> 30 µg/mL	> 30 µg/mL	> 30 µg/mL	> 30 µg/mL	> 30 µg/mL	> 30 µg/mL	> 30 µg/mL
O=C(/C=C\c1cccc([N+](=O)[O-])c1)N1N=C(c2ccncc2)OC1c1c[nH]c2ccccc12 (configuration not stated)	19.2 µg/mL (≈ 43.7 µM)	174 µg/mL (≈ 395 µM)	20.9 µg/mL (≈ 47.5 µM)	55.7 µg/mL (≈ 127 µM)	21.7 µg/mL (≈ 49.3 µM)	93.2 µg/mL (≈ 212 µM)	22.4 µg/mL (≈ 51 µM)	86 µg/mL (≈ 196 µM)	> 30 µg/mL	> 30 µg/mL	> 30 µg/mL	> 30 µg/mL	> 30 µg/mL	> 30 µg/mL	> 30 µg/mL	> 30 µg/mL	> 30 µg/mL	> 30 µg/mL
Cc1ccc(/C=C\C(=O)N2N=C(c3ccncc3)OC2c2c[nH]c3ccccc23)cc1 (configuration not stated)	3.33 µg/mL (≈ 8.15 µM)	7.86 µg/mL (≈ 19.2 µM)	4.13 µg/mL (≈ 10.1 µM)	8.66 µg/mL (≈ 21.2 µM)	5.73 µg/mL (≈ 14 µM)	9.46 µg/mL (≈ 23.2 µM)	6.53 µg/mL (≈ 16 µM)	10.3 µg/mL (≈ 25.1 µM)	> 30 µg/mL	> 30 µg/mL	> 30 µg/mL	> 30 µg/mL	> 30 µg/mL	> 30 µg/mL	> 30 µg/mL	> 30 µg/mL	> 30 µg/mL	> 30 µg/mL
O=C(/C=C\c1ccccc1)N1N=C(c2ccncc2)OC1c1c[nH]c2ccccc12 (configuration not stated)	10.3 µg/mL (≈ 26 µM)	50.5 µg/mL (≈ 128 µM)	11.1 µg/mL (≈ 28 µM)	51.3 µg/mL (≈ 130 µM)	11.9 µg/mL (≈ 30.1 µM)	42.2 µg/mL (≈ 107 µM)	12.7 µg/mL (≈ 32.1 µM)	45.4 µg/mL (≈ 115 µM)	28.7 µg/mL (≈ 72.8 µM)	> 30 µg/mL	> 30 µg/mL	> 30 µg/mL	> 30 µg/mL	> 30 µg/mL	> 30 µg/mL	> 30 µg/mL	> 30 µg/mL	> 30 µg/mL
O=C(/C=C\c1ccccc1F)N1N=C(c2ccncc2)OC1c1c[nH]c2ccccc12 (configuration not stated)	25.6 µg/mL (≈ 62 µM)	> 256 µg/mL	26.4 µg/mL (≈ 64 µM)	> 256 µg/mL	28.8 µg/mL (≈ 69.8 µM)	202 µg/mL (≈ 489 µM)	32 µg/mL (≈ 77.5 µM)	> 256 µg/mL	> 30 µg/mL	> 30 µg/mL	> 30 µg/mL	> 30 µg/mL	> 30 µg/mL	> 30 µg/mL	> 30 µg/mL	> 30 µg/mL	> 30 µg/mL	> 30 µg/mL
O=C(/C=C\c1cccc(F)c1)N1N=C(c2ccncc2)OC1c1c[nH]c2ccccc12 (configuration not stated)	> 256 µg/mL	> 256 µg/mL	> 256 µg/mL	> 256 µg/mL	> 256 µg/mL	> 256 µg/mL	> 256 µg/mL	> 256 µg/mL	> 30 µg/mL	> 30 µg/mL	> 30 µg/mL	> 30 µg/mL	> 30 µg/mL	> 30 µg/mL	> 30 µg/mL	> 30 µg/mL	> 30 µg/mL	> 30 µg/mL
CC1(C)S[C@@H]2[C@H](NC(=O)[C@H](N)c3ccccc3)C(=O)N2[C@H]1C(=O)O [AMPICILLIN]	0.086 µg/mL (≈ 0.246 µM)	1.46 µg/mL (≈ 4.18 µM)	1.87 µg/mL (≈ 5.35 µM)	4.36 µg/mL (≈ 12.5 µM)	0.42 µg/mL (≈ 1.2 µM)	1 µg/mL (≈ 2.86 µM)	3.15 µg/mL (≈ 9.02 µM)	10.3 µg/mL (≈ 29.5 µM)										
NC[C@H]1O[C@H](O[C@H]2[C@H](O)[C@@H](O[C@H]3O[C@H](CO)[C@@H](O)[C@H](N)[C@H]3O)[C@H](N)C[C@@H]2N)[C@H](O)[C@@H](O)[C@@H]1O [KANAMYCIN]	0.13 µg/mL (≈ 0.268 µM)	1.62 µg/mL (≈ 3.34 µM)	0.014 µg/mL (≈ 0.0289 µM)	0.49 µg/mL (≈ 1.01 µM)	> 30 µg/mL	> 33 µg/mL	0.37 µg/mL (≈ 0.764 µM)	1.35 µg/mL (≈ 2.79 µM)										
CC(=O)O[C@H]1C(=O)[C@@]2(C)[C@H]([C@H](OC(=O)c3ccccc3)[C@]3(O)C[C@H](OC(=O)[C@H](O)[C@@H](NC(=O)c4ccccc4)c4ccccc4)C(C)=C1C3(C)C)[C@]1(OC(C)=O)CO[C@@H]1C[C@@H]2O [PACLITAXEL]													0.005 µg/mL (≈ 0.00586 µM)	0.075 µg/mL (≈ 0.0878 µM)	0.12 µg/mL (≈ 0.141 µM)	5.88 µg/mL (≈ 6.89 µM)	0.0038 µg/mL (≈ 0.00445 µM)	0.078 µg/mL (≈ 0.0913 µM)
